One assay has as its target T1, SETD2(1434-1711) (Homo sapiens, UniProt Q9BYW2).
T1 construct: SETD2 (1434-1711) Assay; catalogue N/A
T1 sequence (Q9BYW2 1434-1711): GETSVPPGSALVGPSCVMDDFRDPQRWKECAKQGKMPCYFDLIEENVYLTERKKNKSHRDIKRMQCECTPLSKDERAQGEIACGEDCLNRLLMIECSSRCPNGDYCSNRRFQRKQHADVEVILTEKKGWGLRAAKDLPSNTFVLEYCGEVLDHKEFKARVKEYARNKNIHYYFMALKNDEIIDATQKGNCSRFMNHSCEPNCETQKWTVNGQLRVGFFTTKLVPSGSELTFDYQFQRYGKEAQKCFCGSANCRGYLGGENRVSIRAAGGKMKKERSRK
In words: SETD2 (1434-1711) assay. It is filed as biochemical. To be noted: read-out: SETD2 (1434-1711).

A further assay relates to H3K36me3 in A549 cells. As to the kind of experiment: In-Cell Western (ICW) assay of SETD2 inhibitors (A549 assay). The format is cell-based, human. To be noted: A549 cells, read-out: SETD2 A549. The essentials:
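A549 cells seeded at 4,000/well onto compound and incubated 3 days at 37° C. Methanol-fixed cells stained overnight at 4° C with anti-H3K36me3 (1:1000), then IRDye 800CW secondary with DRAQ5 DNA counterstain. Plates read by Licor imaging at 700 and 800 channels.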

The source of these data is patent US12116358B2, “Substituted indoles and methods of use thereof” (EPIZYME, INC., priority 2018, dated 2024).

Structures are written as SMILES. Where two headings read alike, the source gives them in different places. A value given as a limit tells only on which side of the number the result lay.

Regarding `Cc1ccc(F)c2cc(C(=O)Nc3cc(F)cc(N4CCC(N(C)C)C4)c3)[nH]c12` (stereo not shown) [compound 53], the IC50 at SETD2(1434-1711) worked out at 5 nM; in the assay with H3K36me3 in A549 cells it was 100 nM.
In the case of `CC(=O)N1CCN([C@H]2C[C@H](NC(=O)c3cc4c(F)ccc(C)c4[nH]3)CN(C)C2)CC1` [compound 1107], the IC50 on SETD2(1434-1711) was 5300 nM; in the assay with H3K36me3 in A549 cells (Homo sapiens), over 2000 nM.
On to `Cc1ccc(F)c2cc(C(=O)NC3CCCC(N4CCC(N(C)C(=O)C(C)(C)O)C4)C3)[nH]c12` (stereo not shown) [compound 1052], for which the IC50 was 20 nM at SETD2(1434-1711) and 50 nM in the assay on H3K36me3 in A549 cells.
The corresponding values for `CC(=O)N1CCC(C2CCCC(NC(=O)c3cc4c(F)ccc(C)c4[nH]3)C2)CC1` (stereo not shown) [compound 1124] are 200 nM and 800 nM.
The corresponding values for `Cc1ccc(F)c2cc(C(=O)Nc3cccc(N4CCC(C(C)C)CC4)c3)[nH]c12` [compound 336] are 400 nM and 1600 nM.
On to `Cc1ccc(F)c2cc(C(=O)NC3CCCN(CC(=O)N(C)C)C3)[nH]c12` (stereo not shown) [compound 377], for which the IC50 was over 10000 nM on SETD2(1434-1711) and over 2000 nM in the assay with H3K36me3 in A549 cells (Homo sapiens).
On the same counts, the results for `Cc1ccc(F)c2cc(C(=O)Nc3cccc(C4CCC5C(CCN5C)C4)c3)[nH]c12` (stereo not shown) [compound 294] are 30 nM and 1100 nM.
Regarding `Cc1ccc(F)c2cc(C(=O)NC3C(=O)NCCc4ccccc43)[nH]c12` (stereo not shown) [compound 327], the IC50 at SETD2(1434-1711) worked out at 500 nM; with H3K36me3 in A549 cells, 1600 nM.
On the same counts, the results for `Cc1ccc(F)c2cc(C(=O)NC3CCCC(N4CCN5C(=O)COCC5C4)C3)[nH]c12` (stereo not shown) [compound 1067] are 900 nM and 1200 nM.
On the same counts, the results for `Cc1ccc(F)c2cc(C(=O)NC3CCCC(N4CCC5(CCC(=O)N5CC(F)(F)F)CC4)C3)[nH]c12` (stereo not shown) [compound 965] are 20 nM and 200 nM.
With `Cc1ccc(F)c2cc(C(=O)N[C@@H]3CCC[C@H](N4CCn5c(cccc5=O)C4)C3)[nH]c12` [compound 1048], the IC50 was determined as 20 nM at SETD2(1434-1711) and 70 nM with H3K36me3 in A549 cells (Homo sapiens).
Turning to `CC(=O)N1CCN([C@@H]2CCC[C@@H](NC(=O)c3cc4c(F)ccc(C)c4[nH]3)C2)C[C@H]1C(F)(F)F` [compound 1072], the IC50 was 2300 nM on SETD2(1434-1711) and over 2000 nM in the assay with H3K36me3 in A549 cells (Homo sapiens).
The corresponding values for `Cc1ccc(F)c2cc(C(=O)Nc3cc(F)cc(N4CCN(C(=O)CN(C)C)C(C)C4)c3)[nH]c12` (stereo not shown) [compound 70] are 9 nM and 200 nM.
The corresponding values for `Cc1cc(N2CCN(CCCc3cccnc3)CC2)cnc1C(NC(=O)c1cc2cccc(C)c2[nH]1)C1CC1` (stereo not shown) [compound 440] are 800 nM and 5000 nM.
On the same counts, the results for `Cc1ccc(F)c2cc(C(=O)N[C@@H]3CCC[C@H](N4CCN5C(=O)N(C)C[C@H]5C4)C3)[nH]c12` [compound 1126] are 20 nM and 80 nM.
As for `Cc1ccc(F)c2cc(C(=O)Nc3cccc(CCN)c3)[nH]c12` [compound 418], the IC50 at SETD2(1434-1711) amounted to 100 nM; with H3K36me3 in A549 cells, 3400 nM.
For `Cc1ccc(F)c2cc(C(=O)Nc3cccc4c(N5CCN(C)CC5)[nH]nc34)[nH]c12` [compound 391], the IC50 on SETD2(1434-1711) was found to be 200 nM; in the assay with H3K36me3 in A549 cells (Homo sapiens), 2000 nM.
Consider `Cc1ccc(F)c2cc(C(=O)Nc3cccc(N4CC5CCC(C4)O5)c3)[nH]c12` [compound 250], for which the figures for the IC50 at SETD2(1434-1711) and with H3K36me3 in A549 cells were 100 nM and 600 nM, respectively.
With `Cc1ccc(F)c2cc(C(=O)Nc3cccc(-n4cnc(CN(C)C)n4)c3)[nH]c12` [compound 276], the IC50 amounted to 90 nM on SETD2(1434-1711) and 900 nM with H3K36me3 in A549 cells (Homo sapiens).
In the case of `Cc1ccc(F)c2cc(C(=O)Nc3cc(F)cc([C@H]4CC[C@H](N5CCOCC5)CC4)c3)[nH]c12` [compound 353], the IC50 at SETD2(1434-1711) was 100 nM; in the assay with H3K36me3 in A549 cells it was over 2000 nM.
Turning to `CCN(C1CCN(C2CCCC(NC(=O)c3cc4c(F)ccc(C)c4[nH]3)C2)C1)S(C)(=O)=O` (stereo not shown) [compound 1132], the IC50 at SETD2(1434-1711) was 2300 nM; with H3K36me3 in A549 cells, over 2000 nM.
The corresponding values for `Cc1ccc(F)c2cc(C(=O)N[C@@H]3CCC[C@@H](N4CCn5ncnc5C4)C3)[nH]c12` [compound 869] are 6600 nM and over 2000 nM.
The corresponding values for `Cc1ccc(F)c2cc(C(=O)Nc3cccc(N4CCC(N(C)CCF)C4)c3)[nH]c12` (stereo not shown) [compound 97] are 40 nM and 200 nM.
On the same counts, the results for `Cc1cc(-c2ccc(CN3CCOCC3)nc2)cnc1C(NC(=O)c1cc2cccc(C)c2[nH]1)C1CC1` (stereo not shown) [compound 402] are 300 nM and 2500 nM.
In the case of `Cc1cc(C(=O)N[C@@H]2CC[C@@H]2N)cnc1C(NC(=O)c1cc2cccc(C)c2[nH]1)C1CC1` (stereo partly shown) [compound 584], the IC50 at SETD2(1434-1711) is 33700 nM; in the assay on H3K36me3 in A549 cells (Homo sapiens), over 25000 nM.
The corresponding values for `Cc1ccc(F)c2cc(C(=O)N[C@@H]3CCC[C@H](N4CCN(C(=O)C(C)C)CC4)C3)[nH]c12` [compound 837] are 20 nM and 100 nM.
As to `Cc1cccc2cc(C(=O)NC3CC4CCC(C3)N4C(=O)CCCN)[nH]c12` (stereo not shown) [compound 552], the IC50 is 7700 nM at SETD2(1434-1711) and over 25000 nM in the assay on H3K36me3 in A549 cells.
`CC(=O)N1CCN([C@@H]2CCC[C@@H](NC(=O)c3cc4c(F)ccc(C)c4[nH]3)C2)CC12CC2` [compound 1100]: the IC50 at SETD2(1434-1711) was 900 nM; with H3K36me3 in A549 cells (Homo sapiens), over 2000 nM.
Consider `Cc1ccc(F)c2cc(C(=O)Nc3cccc(C4CCC(N(C)C)CC4)c3)[nH]c12` (stereo not shown) [compound 343], for which the IC50 at SETD2(1434-1711) worked out at 80 nM; in the assay with H3K36me3 in A549 cells it was 1800 nM.
`Cc1ccc(F)c2cc(C(=O)Nc3cccc(N4CCC(CN(C)C)CC4)c3)[nH]c12` [compound 117]: the IC50 at SETD2(1434-1711) was 20 nM; in the assay on H3K36me3 in A549 cells, 200 nM.
Take `Cc1ccc(F)c2cc(C(=O)Nc3cccc(N4C5CCC4C(=O)N(C)C5)c3)[nH]c12` (stereo not shown) [compound 411]: the IC50 on SETD2(1434-1711) came to 800 nM; with H3K36me3 in A549 cells it was 3000 nM.
In the case of `Cc1ccc(F)c2cc(C(=O)Nc3cccc(-c4ccncc4)c3)[nH]c12` [compound 116], the IC50 worked out at 40 nM at SETD2(1434-1711) and 200 nM in the assay on H3K36me3 in A549 cells (Homo sapiens).
The corresponding values for `Cc1ccc(F)c2cc(C(=O)Nc3cccc(S(N)(=O)=O)c3)[nH]c12` [compound 454] are 2800 nM and 5900 nM.
On the same counts, the results for `Cc1ccc(F)c2cc(C(=O)Nc3cccc(N4CC5CC4CO5)c3)[nH]c12` (stereo not shown) [compound 284] are 200 nM and 1000 nM.
On the same counts, the results for `Cc1cc(-c2ncccn2)cnc1C(NC(=O)c1cc2cccc(C)c2[nH]1)C1CC1` (stereo not shown) [compound 404] are 300 nM and 2800 nM.
In the case of `Cc1cccc2cc(C(=O)NCc3ccccc3N3CCN(C)CC3)[nH]c12` [compound 554], the IC50 is 8700 nM on SETD2(1434-1711) and over 25000 nM in the assay with H3K36me3 in A549 cells.
The corresponding values for `Cc1ccc(F)c2cc(C(=O)N[C@@H]3CCC[C@@H](N4CCN(C(=O)CN(C)C)CC4)C3)[nH]c12` [compound 855] are 4700 nM and over 2000 nM.
On the same counts, the results for `CC(=O)N1CCCN(c2cccc(NC(=O)c3cc4c(F)ccc(C)c4[nH]3)c2)CC1` [compound 248] are 100 nM and 600 nM.
In the case of `Cc1ccc(F)c2cc(C(=O)Nc3cccc(N4CCC5(CC4)COC5)c3)[nH]c12` [compound 57], the IC50 came out at 30 nM at SETD2(1434-1711) and 100 nM in the assay with H3K36me3 in A549 cells.
On the same counts, the results for `Cc1ccc(F)c2cc(C(=O)Nc3cc(F)cc(N4CCOC(CCO)C4)c3)[nH]c12` (stereo not shown) [compound 24] are 20 nM and 60 nM.
The corresponding values for `CCN(C1CCN(C2CCCC(NC(=O)c3cc4c(F)ccc(C)c4[nH]3)C2)C1)S(C)(=O)=O` (stereo not shown) [compound 1122] are 1900 nM and over 2000 nM.
On the same counts, the results for `Cc1ccc(F)c2cc(C(=O)Nc3cccc(N4CC5CCCN(C)C5C4)c3)[nH]c12` (stereo not shown) [compound 182] are 20 nM and 400 nM.
As to `Cc1ccc(F)c2cc(C(=O)N[C@@H]3CCC[C@@H](N4CCN5C(=O)NC[C@H]5C4)C3)[nH]c12` [compound 1082], the IC50 on SETD2(1434-1711) is 600 nM; with H3K36me3 in A549 cells (Homo sapiens), over 2000 nM.
The corresponding values for `Cc1cc(Cn2ccnc2)cnc1C(NC(=O)c1cc2c(F)ccc(C)c2[nH]1)C1CC1` (stereo not shown) [Cpd. No. 161, N-((5-((1H-imidazol-1-yl)methyl)-3-methylpyridin-2-yl)(cyclopropyl)methyl)-4-fluoro-7-methyl-1H-indole-2-carboxamide] are 30 nM and 300 nM.
`CC(=O)N1CCC(c2cccc(NC(=O)c3cc4c(F)ccc(C)c4[nH]3)c2)C1` (stereo not shown) [compound 73]: the IC50 on SETD2(1434-1711) worked out at 40 nM; in the assay with H3K36me3 in A549 cells it was 200 nM.
The corresponding values for `Cc1ccc(F)c2cc(C(=O)NC3CCCC(N4CCN5C(=O)CN(C)C(=O)C5C4)C3)[nH]c12` (stereo not shown) [compound 1102] are 3900 nM and over 2000 nM.
With `Cc1ccc(F)c2cc(C(=O)Nc3nnc(C4CCN(C)CC4)[nH]3)[nH]c12` [compound 559], the IC50 at SETD2(1434-1711) is over 10000 nM; in the assay with H3K36me3 in A549 cells (Homo sapiens), over 25000 nM.
The corresponding values for `Cc1cccc2cc(C(=O)NC(c3cccc4c3NC(=O)C4)C3CC3)[nH]c12` (stereo not shown) [compound 564] are 10900 nM and over 25000 nM.
The corresponding values for `Cc1ccc(F)c2cc(C(=O)Nc3cccc(N4CCOC(C)C4)c3)[nH]c12` (stereo not shown) [compound 129] are 60 nM and 300 nM.
For the compound `CC(=O)N1CCC2CN(c3cc(F)cc(NC(=O)c4cc5c(F)ccc(C)c5[nH]4)c3)CC21` (stereo not shown) [compound 14], the IC50 came to 7 nM at SETD2(1434-1711) and 50 nM in the assay on H3K36me3 in A549 cells.
